Measured values taken from patent US11987575B2, “Tricyclic compounds as BCR-ABL inhibitors” (ASCENTAGE PHARMA (SUZHOU) CO., LTD., priority 2019, dated 2024).

Key:
BaF3(WT) = BaF3(WT) (Homo sapiens, UniProt P00519); assay: WST (CCK-8) anti-proliferative assay, BaF3 WT; conditions: read-out: BaF3(WT); BaF3 WT cells, 72 h treatment, CCK-8 readout OD 450 nm
BaF3 (T315I mutant) = BaF3 (T315I mutant) (Homo sapiens, UniProt P00519, T315I, cells depend on it); assay: WST (CCK-8) anti-proliferative assay, BaF3 T315I mutant; conditions: read-out: BaF3 (T315I mutant), 72 h treatment, CCK-8 readout OD 450 nm

| Structure (SMILES) | GI50 (BaF3(WT)) [nM] | GI50 (BaF3 (T315I mutant)) [nM] |
| --- | --- | --- |
| CC(C)N1c2c(-c3ccn[nH]3)cc(C(=O)Nc3ccc(OC(F)(F)Cl)cc3)cc2C2CCC(O)C21 (stereo not shown) [Compound 1, N-(4-(chlorodifluoromethoxy)phenyl)-3-hydroxy-4-isopropyl-5-(1H-pyrazol-5-yl)-1,2,3,3a,4,8b-hexahydrocyclopenta[b]indole-7-carboxamide] | 17 | 192 |
| CC(C)N1c2c(-c3ccn[nH]3)cc(C(=O)Nc3ccc(OC(F)(F)Cl)cc3)cc2C2CCCC21 (stereo not shown) [Compound 2, N-(4-(chlorodifluoromethoxy)phenyl)-4-isopropyl-5-(1H-pyrazol-5-yl)-1,2,3,3a,4,8b-hexahydrocyclopenta[b]indole-7-carboxamide] | 15 | 354 |
| CC(C)N1c2c(-c3ccn[nH]3)cc(C(=O)Nc3ccc(OC(F)(F)Cl)cc3)cc2C2CC(O)C(O)C21 (stereo not shown) [Compound 3, N-(4-(chlorodifluoromethoxy)phenyl)-2,3-dihydroxy-4-isopropyl-5-(1H-pyrazol-5-yl)-1,2,3,3a,4,8b-hexahydrocyclopenta[b]indole-7-carboxamide] | 36 | 177 |
| CC(=O)NC1CCC2c3cc(C(=O)Nc4ccc(OC(F)(F)Cl)cc4)cc(-c4ccn[nH]4)c3N(C(C)C)C12 (stereo not shown) [Compound 4, 3-acetamido-N-(4-(chlorodifluoromethoxy)phenyl)-4-isopropyl-5-(1H-pyrazol-5-yl)-1,2,3,3a,4,8b-hexahydrocyclopenta[b]indole-7-carboxamide] | 14 | 71 |
| CC(C)C(=O)NC1CCC2c3cc(C(=O)Nc4ccc(OC(F)(F)Cl)cc4)cc(-c4ccn[nH]4)c3N(C(C)C)C12 (stereo not shown) [Compound 7] | 14 | 142 |
| COCC(=O)NC1CCC2c3cc(C(=O)Nc4ccc(OC(F)(F)Cl)cc4)cc(-c4ccn[nH]4)c3N(C(C)C)C12 (stereo not shown) [Compound 9] | 17 | 206 |
| CC(C)N1c2c(-c3ccn[nH]3)cc(C(=O)Nc3ccc(OC(F)(F)Cl)cc3)cc2C2CCC(NC(=O)N3CCOCC3)C21 (stereo not shown) [Compound 10] | 31 | 29 |
| CNC(=O)NC1CCC2c3cc(C(=O)Nc4ccc(OC(F)(F)Cl)cc4)cc(-c4ccn[nH]4)c3N(C(C)C)C12 (stereo not shown) [Compound 11] | 53 | 64 |
| CC(C)N1c2c(-c3ccn[nH]3)cc(C(=O)Nc3ccc(OC(F)(F)Cl)cc3)cc2C2CCC(NS(=O)(=O)N3CCOCC3)C21 (stereo not shown) [Compound 13] | 12 | 122 |

Continued, values first:

| GI50 (BaF3(WT)) [nM] | GI50 (BaF3 (T315I mutant)) [nM] | Structure (SMILES) |
| --- | --- | --- |
| 3 | 35 | CC(=O)N[C@@H]1CC[C@H]2c3cc(C(=O)Nc4ccc(OC(F)(F)Cl)cc4)cc(-c4ccn[nH]4)c3N(C(C)C)[C@@H]12 [Compound 4-A, (3R,3aR,8bS)-3-acetamido-N-(4-(chlorodifluoromethoxy)phenyl)-4-isopropyl-5-(1H-pyrazol-5-yl)-1,2,3,3a,4,8b-hexahydrocyclopenta[b]indole-7-carboxamide] |
| 535 | 1270 | CC(=O)N[C@H]1CC[C@@H]2c3cc(C(=O)Nc4ccc(OC(F)(F)Cl)cc4)cc(-c4ccn[nH]4)c3N(C(C)C)[C@H]12 [Compound 4-B, (3S,3aS,8bR)-3-acetamido-N-(4-(chlorodifluoromethoxy)phenyl)-4-isopropyl-5-(1H-pyrazol-5-yl)-1,2,3,3a,4,8b-hexahydrocyclopenta[b]indole-7-carboxamide] |
| 34 | 144 | CNS(=O)(=O)NC1CCC2c3cc(C(=O)Nc4ccc(OC(F)(F)Cl)cc4)cc(-c4ccn[nH]4)c3N(C(C)C)C12 (stereo not shown) [Compound 5] |
| 67 | 154 | CC(C)N1c2c(-c3ccn[nH]3)cc(C(=O)Nc3ccc(OC(F)(F)Cl)cc3)cc2C2CCC(NS(C)(=O)=O)C21 (stereo not shown) [Compound 6] |
| 10 | 216 | CC(C)N1c2c(-c3ccn[nH]3)cc(C(=O)Nc3ccc(OC(F)(F)Cl)cc3)cc2C2CCC(NS(=O)(=O)N(C)C)C21 (stereo not shown) [Compound 12] |
